Test results taken from paper PMC7326067, “The Critical Role of Tryptophan in the Antimicrobial Activity and Cell Toxicity of the Duck Antimicrobial Peptide DCATH” (Frontiers in Microbiology, 2020).
Where no end group is shown, it is not given here.

Assays:
E. coli ATCC 25922 = assay type: cell-based, Escherichia coli; details: ATCC 25922, 24 h
Description: (§1) Three types of Gram-positive bacteria (Staphylococcus epidermidis ATCC 12228, Staphylococcus aureus 29213 and Enterococcus faecalis ATCC 29212) and four types of Gram-negative bacteria (Escherichia coli UB1005, Escherichia coli ATCC 25922, Salmonella typhimurium ATCC 14028 and Salmonella pullorum C79–13) preserved in our lab were cultured in the medium of Muller-Hinton broth (MHB) medium (1.75% casamino acid, 0.2% beef extract, 0.15% soluble starch, pH 7.0). The murine macrophage cell line RAW 264.7 cells were procured from the American Type Culture Collection (Manassas, VA, United States) and cultured in DMEM containing 10% fetal bovine serum […], penicillin (100 units/ml) and streptomycin (100 units/ml) in 5% CO2 at 37°C.
(§2) The antimicrobial activity of peptides was examined against representative strains of Gram-positive bacteria (S. aureus ATCC 29213, S. epidermidis ATCC 12228 and E. faecalis ATCC 29212) and Gram-negative bacteria (E. coli ATCC 25922, E. coli UB1005, S. pullorum C79–13, and S. typhimurium ATCC 14028) which were cultured in MHB medium. Antimicrobial activity assay was performed according to a modified version of broth microdilution method ([Gao et al., 2015]). When grown to an OD600 of 0.4, the bacterial stains cultured in MHB were diluted to a final concentration of about 1 × 10^5 CFU/ml. Fifty microliter of microbial solution and 50 μl of two-fold diluted concentrations of peptides [0.2% (w/v) bovine serum albumin, 0.01% (v/v) acetic acid] were mixed in the sterile 96-well plate and cultured at 37°C for 24 h. MICs were identified as the lowest peptide concentration that no bacteria growth was observed by OD determination (492 nm). Each experiment was performed in triplicate. The geometric mean (GM) of the MICs of a peptide was calculated on the MIC values of the peptide against all tested bacteria, and was used to evaluate the antimicrobial activity of the peptide. The therapeutic index (TI) was defined as the ratio of the minimum hemolytic concentration (MHC) to the GM and was used to measure the peptide cell selectivity toward the component with negative charge of bacterial cell membranes over the zwitterionic membranes mammalian cells. TI was calculated as the ratio of the HC10 (the peptide concentration needed to reach 10% lysis of hRBCs) value to the GM (TI = HC10/GM).

E. coli UB1005 = assay type: cell-based, Escherichia coli; details: UB1005, 24 h
Description: as §1, §2

all tested bacteria = assay: MIC over all tested bacteria (geometric mean); assay type: cell-based; details: calculated on the MIC values against all tested bacteria (7 strains)
Description: as §1, §2

[1] = tested on: Human red blood cells (hRBCs); assay type: cell-based; details: for MHC (minimum hemolytic concentration): red cells of human, 1 h
Description: The hemolytic activity assay of these peptides was performed according to the method of [Gao et al. (2015)]. Human red blood cells (hRBCs) donated by a healthy adult were collected by centrifugation and washed by phosphate-buffered saline (PBS) solution (pH 7.2). 1% (v/v) suspension of hRBCs in PBS was incubated with different concentrations of peptides dissolved in PBS for 1 h at 37°C. Absorbance in the supernatant was monitored at 405 nm. hRBCs in 0.1% Triton X-100 and PBS were used as positive and negative controls, respectively. The hemolysis percentage was calculated as follows:
%hemolysis=[A-sampleA]blank/[A-TritonA]blank×100.
FIGURE 1 Hemolytic and toxicity activity of the peptides. (A,B) Hemolytic activity against hRBCs. (C,D) Toxicity activity against RAW264.7 cells. Hemolytic activity was evaluated by incubating individual peptides in serial 2-fold dilutions with freshly isolated hRBCs at 37°C for 1 h, followed by measuring the released hemoglobin at 405 nm. For negative and positive controls, hRBCs in PBS and 0.1% Triton X-100 were used, respectively. Toxicity activity of the peptides against RAW264.7 was determined using MTT method. The peptides were incubated with RAW264.7 in a 96-well microtiter plate. After incubation with MTT, the supernatant was discarded and DMSO was added and the optical density (OD) at 570 nm was measured.

[2] = tested on: S. typhimurium ATCC 14028; assay type: cell-based, Salmonella typhimurium; details: ATCC 14028, 24 h
Description: as §1, §2

S. aureus ATCC 29213 = assay type: cell-based, Staphylococcus aureus; details: ATCC 29213, 24 h
Description: as §1, §2

[3] = tested on: S. epidermidis ATCC 12228; assay type: cell-based, Staphylococcus epidermidis; details: ATCC 12228, 24 h
Description: as §1, §2

E. faecalis ATCC 29212 = assay type: cell-based, Enterococcus faecalis; details: ATCC 29212, 24 h
Description: as §1, §2

S. pullorum C79-13 = assay type: cell-based, Salmonella pullorum; details: C79-13, 24 h
Description: as §1, §2

[4] = tested on: BALB/c mice challenged with lethal dose of LPS; assay: Protection of mice from LPS-induced lethal infection; assay type: in vivo; details: male BALB/c mice, LPS 20 mg/kg i.p.; PMB 2.5 mg/kg or peptide 10 mg/kg i.p. 1 h after challenge
Description: The 6–8 week-old male BALB/c mice (purchased from Charles River Laboratories, Beijing, China) were used to investigate the protective effect in vivo of peptides on LPS-induced infection. All animals were raised under specific pathogen-free conditions and the protocol was authorized by the Animal Care Committee of Northeast Agricultural University. Mice were divided into four groups (12 mice per group). 1 h after a challenge with a lethal dose of LPS intraperitoneal injection (20 mg/kg⋅body weight), 4 groups of mice were injected intraperitoneally with 0.5 ml PBS, PMB (2.5 mg/kg⋅body weight), dCATH(1–16) or dCATH(5–20) (10 mg/kg⋅body weight). General behavior, onset and course of clinical disease and mortality of mice were observed every 12 h for a period of 7 days.
FIGURE 8 Survival of mice from LPS-induced lethal infection by dCATH(1–16) or dCATH(5–20). Mice were subjected to a lethal dose of LPS, followed by i.p. injection of CATH(1–16) or dCATH(5–20) at 10 mg/kg or an equal volume of PBS as controls (n = 12). Survival was recorded every 12 h over 7 days.

| Substance | MIC E. coli ATCC 25922 (E. coli ATCC 25922) [µM] | MIC E. coli UB1005 (E. coli UB1005) [µM] | GM (geometric mean of the MICs) (all tested bacteria) [µM] | hemolytic activity (in words) [1] | MIC S. typhimurium ATCC 14028 [2] [µM] | MIC S. aureus ATCC 29213 (S. aureus ATCC 29213) [µM] | MIC S. epidermidis ATCC 12228 [3] [µM] | MIC E. faecalis ATCC 29212 (E. faecalis ATCC 29212) [µM] | MIC S. pullorum C79-13 (S. pullorum C79-13) [µM] | MHC (minimum hemolytic concentration) [1] [µM] | onset and symptoms of disease (in words) [4] |
| --- | --- | --- | --- | --- | --- | --- | --- | --- | --- | --- | --- |
| QLVPLAIKIYRA-NH2 [dCATH(5–16)] | 64 | 128 | 190.21 | negligible hemolytic activity |  |  |  |  |  |  |  |
| QLVPLAIKIYRAAKRR-NH2 [dCATH(5–20)-17A] | 64 |  | 70.66 | negligible hemolytic activity | 64 | 32 | 32 | 32 |  |  |  |
| KRFAQLVPLAIKIYRA-NH2 [dCATH(1–16)-4A] | 16 | 32 | 47.55 | negligible hemolytic activity | 64 | 128 | 64 | 32 | 64 |  |  |
| FWQLVPLAIKIYRAWKRR-NH2 [dCATH(3–20)] | 1 | 2 | 1.81 | obvious hemolytic activity | 4 | 2 | 1 | 2 | 2 | 4 |  |
| WQLVPLAIKIYRAWKRR-NH2 [dCATH(4–20)] | 1 | 4 | 2.44 | obvious hemolytic activity | 2 | 2 | 4 | 2 | 4 | 16 |  |
| KRFWQLVPLAIKIYRAWKRR-NH2 [dCATH] | 2 | 2 | 3.62 | obvious hemolytic activity | 8 | 4 | 4 | 4 | 4 | 4 |  |
| KRFWQLVPLAIKIYRA-NH2 [dCATH(1–16)] | 2 | 4 | 4.88 |  | 4 | 8 | 8 | 8 | 4 |  |  |
| polymyxin B [PMB] |  |  |  |  |  |  |  |  |  |  | delayed the onset of disease of mice with less severe symptoms |
| KRFWQLVPLAIKIYRAW-NH2 [dCATH(1–17)] | 1 | 1 | 2.21 | obvious hemolytic activity | 4 | 2 | 4 | 2 | 4 | 8 |  |
| QLVPLAIKIYRAWKRR-NH2 [dCATH(5–20)] | 1 | 4 | 3.28 |  | 4 | 2 | 4 | 4 | 8 | 128 |  |
| KRFWQLVPLAIKIYRAWK-NH2 [dCATH(1–18)] | 1 | 2 | 1.81 | obvious hemolytic activity | 2 | 2 | 2 | 2 | 2 | 8 |  |
| KRFAQLVPLAIKIYRAAKRR-NH2 [dCATH-AA] | 32 | 16 | 39.01 | negligible hemolytic activity | 64 | 64 | 64 | 32 | 32 |  |  |
